# pEC50: −log10 of the molar value.
# What was measured:
# [1] = target: DYRK1A kinase (Homo sapiens, UniProt Q13627); assay: DYRK1A kinase activity (Ser/Thr 18 peptide Z-lyte FRET assay); type: biochemical; conditions: recombinant DYRK1A, 30 μM ATP, one hour at room temperature;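 note: kinase activity read as coumarin/fluorescein emission ratio after development step, with unphosphorylated and phosphorylated peptide forms setting 0% and 100% controls, values from dose-response curves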
# [2] = target: GSK3β kinase (Homo sapiens, UniProt P49841); assay: GSK3β kinase activity (Ser/Thr 09 peptide Z-lyte FRET assay); type: biochemical; conditions: recombinant kinase, 46 μM ATP, one hour at room temperature; read-out: EC50
# [3] = test system: Tau phosphorylation at Ser396 (pSer396); assay: Tau phosphorylation at Ser396 (pSer396) in SH-SY5Y cells, ELISA / western blot; type: cell-based, human; conditions: Homo sapiens; SH-SY5Y cells, overnight (16-18 h); read-out: pSer396 Tau EC50;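 note: decrease in pSer396 Tau measured in lysates of treated cells by colorimetric ELISA or chemiluminescent western blot, same pSer396 antibody for both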
# Experimental: Two days before treatment, cells were seeded onto 96 well plates at 5×10^4 cells/well.
# The above synthesized compounds were screened using the cell assay procedure to assess decrease Tau phosphorylation at Ser396 (pSer396) described below.
# Cells were lysed with RIPA buffer complemented with phosphatase and protease inhibitors then lysates were spun down at 12,000 g for 10 min to remove any cellular debris.
# [4] = test system: secreted cytokines TNFα, IL-6 and KC-GRO; assay: Secreted cytokines in Lipopolysaccharide-stimulated BV-2 cells (Table 9 does not say which cytokine); type: cell-based, mouse; conditions: Mus musculus, BV-2, 5 h; read-out: EC50
# [5] = test system: SW480 colon carcinoma cells; assay: Cell viability assay (CellTiter-Glo); conditions: Homo sapiens; for pEC50: SW480, 96 h; for inhibition at 10 µM: SW480, read-out: percent inhibition at 10 μM
# [6] = test system: Wnt-responsive Sp5-Luc reporter in SW480 colon carcinoma cells; assay: Screening assay for Wnt activity (Sp5-Luc reporter gene assay); conditions: Homo sapiens; for pEC50: SW480; for inhibition at 10 µM: SW480, read-out: percent inhibition at 10 μM
# [7] = test system: IL-6; assay: IL-6 inhibition in LPS-stimulated human peripheral blood mononuclear cells (HTRF); conditions: Homo sapiens, PBMC; for pEC50: 22 h; for inhibition at 10 µM: read-out: percentage in parentheses after EC50 >10
# [8] = test system: α-smooth muscle actin (aSMA) positive LL29 cells; assay: Inhibition of the fibrotic process: αSMA staining in TGF-β1 treated LL29 fibroblasts from IPF patients; conditions: Homo sapiens, Fibroblast; for pEC50: 96 h; for inhibition at 10 µM: read-out: percentage in parentheses after EC50 >10
# GSK3β kinase, sequence (P49841 whole entry): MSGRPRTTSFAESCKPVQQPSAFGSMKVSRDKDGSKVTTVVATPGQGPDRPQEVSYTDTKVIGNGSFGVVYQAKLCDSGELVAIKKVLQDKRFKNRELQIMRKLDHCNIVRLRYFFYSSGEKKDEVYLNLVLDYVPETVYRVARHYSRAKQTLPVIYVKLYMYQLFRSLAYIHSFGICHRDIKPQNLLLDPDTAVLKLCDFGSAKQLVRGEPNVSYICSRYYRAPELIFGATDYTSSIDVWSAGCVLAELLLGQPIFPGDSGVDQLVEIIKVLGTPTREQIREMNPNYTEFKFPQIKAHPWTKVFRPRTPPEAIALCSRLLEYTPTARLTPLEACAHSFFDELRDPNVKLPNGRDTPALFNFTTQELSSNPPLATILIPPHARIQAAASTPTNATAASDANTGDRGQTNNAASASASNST
pEC50 [1],pEC50 [2],pEC50 [3],pEC50 [4],pEC50 [5],pEC50 [6],pEC50 [7],SMILES,inhibition at 10 µM [5] [%],inhibition at 10 µM [6] [%],inhibition at 10 µM [7] [%],pEC50 [8],inhibition at 10 µM [8] [%]
7.60,8.10,6.40,6.36,< 5.00,< 5.00,< 5.00,"Cc1nnc(-c2ccc3cnc(NC(=O)C4CCN(C(=O)c5ccccc5)CC4)nc3c2)s1 [Compound 1625, 1-Benzoyl-N-(7-(5-methyl-1,3,4-thiadiazol-2-yl)quinazolin-2-yl)piperidine-4-carboxamide]",18.8,37.3,4,5.75,–
8.22,6.92,6.22,5.54,5.04,5.43,< 5.00,"O=C(Nc1ncc2ccc(-c3cccnc3)cc2n1)C1CC1 [Compound 1670, N-(7-(Pyridin-3-yl)quinazolin-2-yl)cyclopropanecarboxamide]",–,–,7.2,5.31,–
7.64,6.49,5.22,6.09,< 5.00,< 5.00,5.05,"Cn1cc(-c2cnc3cnc(NC(=O)C4CC4)cc3c2)cn1 [Compound 2722, N-(3-(1-Methyl-1H-pyrazol-4-yl)-1,7-naphthyridin-6-yl) cyclopropanecarboxamide]",31,13.7,–,6.00,–
7.68,5.26,< 5.00,5.92,< 5.00,< 5.00,< 5.00,"Cn1cc(-c2cnc3cnc(NC(=O)C4CCNCC4)cc3c2)cn1 [Compound 2731, N-(3-(1-Methyl-1H-pyrazol-4-yl)-1,7-naphthyridin-6-yl)piperidine-4-carboxamide]",26.5,30.9,2.8,5.27,–
7.52,5.43,< 5.00,6.96,< 5.00,< 5.00,< 5.00,"CC(C)CN1CCC(C(=O)Nc2cc3cc(-c4cnn(C)c4)cnc3cn2)CC1 [Compound 2736, 1-Isobutyl-N-(3-(1-methyl-1H-pyrazol-4-yl)-1,7-naphthyridin-6-yl) piperidine-4-carboxamide]",10.7,19.3,0,< 5.00,17
8.00,6.78,5.74,6.51,5.23,5.71,5.64,"Cn1ncc(-c2cnc3cnc(NC(=O)C4CC5(C4)CN(CCF)C5)cc3c2)c1CN1CCCCC1 [Compound 3000, 2-(2-Fluoroethyl)-N-(3-(1-methyl-5-(piperidin-1-ylmethyl)-1H-pyrazol-4-yl)-1,7-naphthyridin-6-yl)-2-azaspiro[3.3]heptane-6-carboxamide]",–,–,–,5.00,–
8.05,5.88,5.61,6.19,< 5.00,< 5.00,< 5.00,"Cn1cncc1-c1cnc2cnc(NC(=O)C3CCC(F)(F)CC3)cc2c1 [Compound 3120, 4,4-Difluoro-N-(3-(1-methyl-1H-imidazol-5-yl)-1,7-naphthyridin-6-yl) cyclohexane-1-carboxamide]",21.4,16.2,7.4,< 5.00,27
7.59,5.21,5.00,5.92,< 5.00,< 5.00,5.08,"O=C(Nc1cc2cc(-c3cnco3)cnc2cn1)C1CCN(C(=O)CN2CCCC2)CC1 [Compound 3249, N-(3-(Oxazol-5-yl)-1,7-naphthyridin-6-yl)-1-(2-(pyrrolidin-1-yl)acetyl)piperidine-4-carboxamide]",26.7,31.5,–,5.15,–
8.15,8.70,7.68,5.24,6.02,6.40,5.56,"Cn1cc(-c2cc3cc(NC(=O)C4CC4)ncc3cn2)cn1 [Compound 3629, N-(6-(1-Methyl-1H-pyrazol-4-yl)-2,7-naphthyridin-3-yl) cyclopropanecarboxamide]",–,–,–,7.01,–
8.70,8.40,7.10,< 5.00,5.02,6.66,5.04,"Cn1cc(-c2cc3cc(NC(=O)C4CCN(CCC(F)(F)F)CC4)ncc3cn2)cn1 [Compound 3646, N-(6-(1-Methyl-1H-pyrazol-4-yl)-2,7-naphthyridin-3-yl)-1-(3,3,3-trifluoropropyl)piperidine-4-carboxamide]",–,–,–,< 5.00,12.9
8.15,7.68,6.72,5.17,5.16,6.29,< 5.00,"C[C@H]1CCCN1CC(=O)Nc1cc2cc(-c3cnn(C)c3)ncc2cn1 [Compound 3674, (S)—N-(6-(1-Methyl-1H-pyrazol-4-yl)-2,7-naphthyridin-3-yl)-2-(2-methylpyrrolidin-1-yl)acetamide]",–,–,1.7,6.22,–
8.10,8.00,6.75,< 5.00,< 5.00,6.22,< 5.00,"CN(CC(=O)Nc1cc2cc(-c3cnn(C)c3)ncc2cn1)C1CCC1 [Compound 3683, 2-(Cyclobutyl(methyl)amino)-N-(6-(1-methyl-1H-pyrazol-4-yl)-2,7-naphthyridin-3-yl)acetamide]",38.8,–,4.6,6.22,–
7.15,8.10,6.81,< 5.00,< 5.00,6.43,< 5.00,"Cn1cc(-c2cc3cc(NC(=O)[C@H]4CCCN4)ncc3cn2)cn1 [Compound 3689, (R)—N-(6-(1-Methyl-1H-pyrazol-4-yl)-2,7-naphthyridin-3-yl)pyrrolidine-2-carboxamide]",28.8,–,7.6,6.05,–
7.19,8.05,7.12,5.32,5.16,6.54,< 5.00,"CC(C(=O)Nc1cc2cc(-c3cnn(C)c3)ncc2cn1)N1CCCCC1 (centres unmarked) [Compound 3698, N-(6-(1-Methyl-1H-pyrazol-4-yl)-2,7-naphthyridin-3-yl)-2-(piperidin-1-yl) propanamide]",–,–,4.6,5.97,–
8.70,8.22,7.37,< 5.00,5.17,6.63,< 5.00,"Cn1cc(-c2cc3cc(NC(=O)C4CCN(S(C)(=O)=O)CC4)ncc3cn2)cn1 [Compound 3699, N-(6-(1-Methyl-1H-pyrazol-4-yl)-2,7-naphthyridin-3-yl)-1-(methylsulfonyl) piperidine-4-carboxamide]",–,–,8.4,7.60,–
8.00,8.10,6.68,5.79,5.22,6.07,5.24,"Cn1cc(-c2cc3cc(NC(=O)CC4CNCCO4)ncc3cn2)cn1 (centres unmarked) [Compound 3714, N-(6-(1-Methyl-1H-pyrazol-4-yl)-2,7-naphthyridin-3-yl)-2-(morpholin-2-yl) acetamide]",–,–,–,5.81,–
8.70,8.00,6.60,7.03,< 5.00,6.07,< 5.00,"Cn1cc(-c2cc3cc(NC(=O)C4CCN(Cc5ncco5)CC4)ncc3cn2)cn1 [Compound 3723, N-(6-(1-Methyl-1H-pyrazol-4-yl)-2,7-naphthyridin-3-yl)-1-(oxazol-2-ylmethyl)piperidine-4-carboxamide]",43.7,–,2.8,< 5.00,9.1
7.80,7.37,6.64,5.43,< 5.00,6.29,< 5.00,"CN1CCCN(CC(=O)Nc2cc3cc(-c4cnn(C)c4)ncc3cn2)CC1 [Compound 3733, 2-(4-Methyl-1,4-diazepan-1-yl)-N-(6-(1-methyl-1H-pyrazol-4-yl)-2,7-naphthyridin-3-yl)acetamide]",37.3,–,6.2,5.74,–
